Experiment [1] relates to sham or OVX female C57BL/6 mice. As to the kind of experiment: microCT of femur in estrogen-deficient ovariectomy (OVX) model, GSK126 for 6 weeks. It is filed as in vivo, mouse. Conditions: for SMI / Tb.N / Tb.Sp / Tb.Th / BV/TV: distal femur metaphysis; for SMI / Tb.N / Tb.Sp / Tb.Th / Ct. Ar / Ct. BV / Ct. Mat.M.Dn / Ct. Ps.Ar / Ct. Th / Ec. Ar / BV/TV: 50 mg/kg, 6 weeks; for SMI / Tb.N / Tb.Sp / Tb.Th / Ct. Ar / Ct. BV / Ct. Mat.M.Dn / Ct. Ps.Ar / Ct. Th / Ec. Ar / Ct. TV / BV/TV: mean; for Ct. Ar / Ct. BV / Ct. Mat.M.Dn / Ct. Ps.Ar / Ct. Th / Ec. Ar / Ct. TV: femoral midshaft; for Ct. TV: GSK126 50 mg/kg daily IP 6 weeks; for BV/TV: trabecular bone. As for the experimental part: The effects of GSK126 administration on the skeleton was evaluated in an estrogen-deficient ovariectomy (OVX) model. At about 12 weeks of age, female C57BL/6 mice underwent either sham or OVX surgeries. The following day, animals received daily IP injections of GSK126 or vehicle (DMSO) at 50 mg/kg body weight for 6 weeks as described herein. To label mineralizing bone surfaces and study bone formation rates, mice received subcutaneous injections of tetracycline (25 mg/kg) 14 days prior sacrifice and calcein (10 mg/kg) at 5 days and 24 hours before euthanasia.
The quantitative analysis of the femoral metaphysis was performed using a vivaCT 40 scanner (SCANCO Medical AG) with the following parameters: E=55 kVp, 1=145 μA, integration time=300 ms. A 10.5 μm voxel size using a threshold of 220 was applied to all scans at high resolution. Using two-dimensional data from scanned slices, 3D analysis was generated and used to calculate morphometric parameters defining trabecular bone mass and micro-architecture, including Bone Volume/Tissue volume (BV/TV), trabecular number (Tb.N.), trabecular thickness (Tb.Th.), trabecular spacing (Tb.Sp.), and the structure model index (SMI), an indicator of plate-like versus rod-like trabecular architecture.

In experiment [2] the test system is MC3T3-E1 cells. Kind of experiment: ECM mineralization by Alizarin Red stain. Type of experiment: cell-based, mouse. Conditions: MC3T3-E1, long-term treatment in osteogenic media. As for the experimental part:
Differentiation of MC3T3-E1 cells was induced with 50 μg/mL ascorbic acid (Sigma-Aldrich) and 5 mM β-glycerophosphate (Sigma-Aldrich) in medium containing 5% FBS. RAW 264.7 cells were cultured in Dulbecco's modified Eagle's medium (DMEM, Invitrogen, Carlsbad, Calif., USA) supplemented with 10% fetal bovine serum (Hyclone) and 2 mM glutamine (Gibco, Carlsbad, Calif., USA). Cells were seeded in culture dishes at a density of 20,000 cells/cm^2 and cultured overnight unless stated otherwise. Before cells were treated with compounds, the culture medium was changed.
(§1) Calvariae from 2 to 3-day-old and from 7-week old C57BL/6 mice were dissected aseptically. The calvarial bone explants were cultured in 48-well plates in α-MEM (Biochrom) containing 10% FCS (Biochrom), 50 μg/mL ascorbic acid (Sigma-Aldrich), 5 mM β-glycerophosphate (Sigma-Aldrich), and 10 μg/mL gentamicin (Sigma-Aldrich). The day after dissection, medium was changed, and a part of the explants was treated with 3 μM L- or DL-SFN for 12 days. Thereafter, one part of the calvariae were fixed for 1 hour in 4% para-formaldehyde (PFA), and mineralization was measured by Alizarin Red S stain (Sigma-Aldrich). For this purpose, Alizarin Red S dye was extracted using 10% cetylpyridinium chloride (CPC) in 10 mM sodiumphosphate (pH=7.0) for 45 minutes at room temperature. Alizarin Red S absorbance was measured at 562 nm in a multi-plate reader (Tecan, Maennedorf, Switzerland) and normalized to total protein amount measured by bicinchoninic acid assay (Thermo Fisher Scientific, Waltham, Mass., USA). From the other part of the calvariae, total RNA was extracted.

The next experiment concerns MLO-Y4 cells. As to the kind of experiment: Cell metabolic activity (EZ4U, MTT similar assay). It is filed as cell-based, mouse. Conditions: 24 hours of treatment, read-out: half-maximal effective concentration (EC50), cell metabolic activity. The procedure:
(§2) To assess cell metabolic activity, a commercially available, MTT similar assay (EZ4U; Biomedica, Vienna, Austria) was used. For this purpose, the cell lines were incubated with increasing concentrations of L- or DL-SFN.
For orientation: Formazan colour is commonly taken as a measure of viable cells.

Experiment [3] relates to MC3T3-E1 cells. Kind of experiment: Cell metabolic activity (EZ4U, MTT similar assay). Type of experiment: cell-based, mouse. Conditions: 24 hours of treatment, read-out: half-maximal effective concentration (EC50), cell metabolic activity. The procedure: as §2
The test system of experiment [4] is RAW 264.7 cells. As to the kind of experiment: Cell metabolic activity (EZ4U, MTT similar assay). Type of experiment: cell-based, mouse. Conditions: read-out: half-maximal effective concentration (EC50), cell metabolic activity. The procedure:
as §2

The subject of experiment [5] is RAW 264.7 cells. As to the kind of experiment: Cell count (proliferation/viability). Type of experiment: cell-based, mouse. Conditions: RAW 264.7, 24 hours, doses of 3 μM and higher. As for the experimental part: Cell lines were seeded in 24-well culture dishes at a density of 20,000/cm^2 and were either left untreated (controls) or treated with L- or DL-SFN at the indicated concentrations for up to 48 hours. Thereafter, cells were detached with 0.001% pronase E, and the number of viable cells was assessed with Casy cell counter (Schaerfe Systems, Reutlingen, Germany). Each experiment was performed in quadruplicate, and experiments were carried out twice. For long term experiments, cell number was determined using DNA amount as surrogate. Cell layers were washed with PBS and fixed for 20 minutes with 4% PFA. Thereafter, Hoechst 33258 dye (Polysciences, Warrington, Pa., USA) was added (1 μg/mL), and, after an incubation of 15 minutes at room temperature, the fluorescence was measured (excitation 360, emission 465 nm). The amount of DNA was estimated using a standard curve prepared from calf thymus DNA (Roche).

Experiment [6] relates to neonatal calvarial explants. Kind of experiment: ECM mineralization by Alizarin Red stain in calvarial explants. It is filed as cell-based, mouse. Conditions: newborn calvarial explants, 3 μM. The procedure:
as §1, with “The day after dissection, medium was changed, and a part of the explants was treated with 3 μM L- or DL-SFN for 12 days.” left out

SMILES strings stand for the structures. pEC50: −log10 of the molar value.

Consider `CC[C@H](C)n1cc(C)c2c(C(=O)NCc3c(C)cc(C)[nH]c3=O)cc(-c3ccc(N4CCNCC4)nc3)cc21` [GSK126, N-[(1,2-dihydro-4,6-dimethyl-2-oxo-3-pyridinyl)methyl]-3-methyl-1-[(1S)-1-methylpropyl]-6-[6-(1-piperazinyl)-3-pyridinyl]-1H-indole-4-carboxamide], for which, in experiment [1] (OVX), the SMI amounted to 3.758, the Tb.N is 2.102 mm^−1, the Tb.Sp came to 0.499 mm and the Tb.Th is reported as 0.047 mm. In addition, in experiment [1] (OVX), the “Ct. Ar” value is given as 0.771 mm^2, the “Ct. BV” value was determined as 0.405 mm^3, the “Ct. Mat.M.Dn” value was found to be 1067 mgHA/cm^3 and the “Ct. Ps.Ar” value is on record as 0.809 mm^2. For the same compound, in experiment [1] (OVX), the “Ct. Th” value is listed as 0.19 mm, the “Ec. Ar” value was 0.038 mm^2, the “Ct. TV” value is given as 0.425 mm^3 and the BV/TV stood at 1.404%. In experiment [1] (SHAM), this compound returned an SMI of 4.168, a Tb.N of 2.496 mm^−1, a Tb.Sp of 0.402 mm and a Tb.Th of 0.042 mm. Further, in experiment [1] (SHAM), the “Ct. Ar” value is listed as 0.782 mm^2, the “Ct. BV” value is listed as 0.411 mm^3, the “Ct. Mat.M.Dn” value was determined as 1065 mgHA/cm^3 and the “Ct. Ps.Ar” value is reported as 0.82 mm^2. In experiment [1] (SHAM), the “Ct. Th” value is on record as 0.197 mm, the “Ec. Ar” value stood at 0.037 mm^2, the “Ct. TV” value worked out at 0.430 mm^3 and the BV/TV is listed as 1.642%. Further, the “OVX-induced cortical bone loss” value in experiment [1] (ovariectomized female mice, daily regimen, in words) is listed as “mitigated”.

Take `C[S+]([O-])CCCCN=C=S` [L-SFN]: the ECM mineralization entry (in the experiment on MC3T3-E1 cells [2]; in experiment [6]) was “significantly increased” throughout. Further, the pEC50 in the experiment on MLO-Y4 cells was ~4.96; with MC3T3-E1 cells [3], ~4.32; with RAW 264.7 cells [4], ~5.00. In addition, the “number of viable cells” value in the experiment with RAW 264.7 cells [5] was “reduced”.

Take `C[S+]([O-])CCCCN=C=S` (racemic) [DL-SFN]: the ECM mineralization result (in the experiment on MC3T3-E1 cells [2]; in experiment [6]) was “significantly increased” in each case. Also, the pEC50 in the experiment on MLO-Y4 cells was ~5.22; in the experiment with MC3T3-E1 cells [3], ~4.89; with RAW 264.7 cells [4], ~5.22. For the same compound, the “number of viable cells” value with RAW 264.7 cells [5] is on record as “reduced”.

The values above are taken from US20180133211A1, “METHODS AND MATERIALS FOR PROMOTING BONE FORMATION” (Mayo Foundation for Medical Education and Research, priority 2015, published 2018).
